Assay results from patent publication US9546176B2, “Small molecule bicyclic and tricyclic CFTR correctors” (DISCOVERYBIOMED, INC., priority 2012, dated 2017).
Read-outs that look alike come from different tables or passages of the source.

Target: T1, delF508-CFTR (Homo sapiens, UniProt P13569, DEL508-508)
T1 construct: endogenous in cells; host or cells: CFBE41o- human CF bronchial epithelial cells (delF508 homozygous)
Assay: SPQ halide-sensitive fluorescence dye assay for rescue of halide efflux (8-point concentration-response)
Type: cell-based
Details: for EC50: read-out: SPQ EC50; for potency and efficacy compared with VX-809 in SPQ assay: versus VX-809
Method: The method of profiling can include detecting the rescue of halide efflux from a cell. The step of detecting a rescue of halide efflux from the cell can be monitored using the halide quenched dye 6-methoxy-N-(3-sulfopropyl)-quinolinium (SPQ, Molecular Probes Inc., Eugene, Oreg.). In this method, cells are treated with a compound as described herein for a period of time (e.g., 48 hours). The rescue or correction of halide efflux is then detected using the SPQ assay with the halide dye. […] Optionally, the halide efflux is chloride efflux. The method of screening can further comprise performing the method with multiple concentrations of the compound.
The compounds were initially subjected to the SPQ halide-sensitive fluorescence dye profiling assay for rescue or correction of membrane chloride ion permeability or transport with an 8-point concentration-response curve. The EC50 values for the compounds described herein were determined using SPQ (Table 1). The ΔSPQ value was calculated by determining the difference between the maximum and minimum SPQ values for the compounds.
To perform the SPQ high throughput screening assay, CFBE41o-cells were seeded into 96-well microtiter plates and were loaded with the fluorescent halide-sensitive dye, SPQ, in serum-containing culture medium. Certain wells were loaded with known positive control corrector molecules, including the industry standard Vertex 809 (VX-809; Vertex Pharmaceuticals, Cambridge, Mass.) at 3 μM, which is the maximally effective profiling dose for VX-809. The test compounds were loaded into wells and were tested in triplicate wells at a 10 μM dose and incubated over 48 hours at room temperature. During the 48 hour period, SPQ was absorbed. Plates were washed in a sodium chloride (NaCl) based Ringer and read once over two minutes to set the baseline SPQ fluorescence activity. Then, NaCl was replaced by sodium nitrate (NaNO3) based Ringer. The plates were read twice over four minutes. The primary high throughput screen (HTS) data were analyzed to detect any function of rescued delF508-CFTR under basal conditions. The plate was read up to two times to complete the SPQ HTS assay.

T1 sequence (P13569 with tags, fused parts or gaps DEL508-508): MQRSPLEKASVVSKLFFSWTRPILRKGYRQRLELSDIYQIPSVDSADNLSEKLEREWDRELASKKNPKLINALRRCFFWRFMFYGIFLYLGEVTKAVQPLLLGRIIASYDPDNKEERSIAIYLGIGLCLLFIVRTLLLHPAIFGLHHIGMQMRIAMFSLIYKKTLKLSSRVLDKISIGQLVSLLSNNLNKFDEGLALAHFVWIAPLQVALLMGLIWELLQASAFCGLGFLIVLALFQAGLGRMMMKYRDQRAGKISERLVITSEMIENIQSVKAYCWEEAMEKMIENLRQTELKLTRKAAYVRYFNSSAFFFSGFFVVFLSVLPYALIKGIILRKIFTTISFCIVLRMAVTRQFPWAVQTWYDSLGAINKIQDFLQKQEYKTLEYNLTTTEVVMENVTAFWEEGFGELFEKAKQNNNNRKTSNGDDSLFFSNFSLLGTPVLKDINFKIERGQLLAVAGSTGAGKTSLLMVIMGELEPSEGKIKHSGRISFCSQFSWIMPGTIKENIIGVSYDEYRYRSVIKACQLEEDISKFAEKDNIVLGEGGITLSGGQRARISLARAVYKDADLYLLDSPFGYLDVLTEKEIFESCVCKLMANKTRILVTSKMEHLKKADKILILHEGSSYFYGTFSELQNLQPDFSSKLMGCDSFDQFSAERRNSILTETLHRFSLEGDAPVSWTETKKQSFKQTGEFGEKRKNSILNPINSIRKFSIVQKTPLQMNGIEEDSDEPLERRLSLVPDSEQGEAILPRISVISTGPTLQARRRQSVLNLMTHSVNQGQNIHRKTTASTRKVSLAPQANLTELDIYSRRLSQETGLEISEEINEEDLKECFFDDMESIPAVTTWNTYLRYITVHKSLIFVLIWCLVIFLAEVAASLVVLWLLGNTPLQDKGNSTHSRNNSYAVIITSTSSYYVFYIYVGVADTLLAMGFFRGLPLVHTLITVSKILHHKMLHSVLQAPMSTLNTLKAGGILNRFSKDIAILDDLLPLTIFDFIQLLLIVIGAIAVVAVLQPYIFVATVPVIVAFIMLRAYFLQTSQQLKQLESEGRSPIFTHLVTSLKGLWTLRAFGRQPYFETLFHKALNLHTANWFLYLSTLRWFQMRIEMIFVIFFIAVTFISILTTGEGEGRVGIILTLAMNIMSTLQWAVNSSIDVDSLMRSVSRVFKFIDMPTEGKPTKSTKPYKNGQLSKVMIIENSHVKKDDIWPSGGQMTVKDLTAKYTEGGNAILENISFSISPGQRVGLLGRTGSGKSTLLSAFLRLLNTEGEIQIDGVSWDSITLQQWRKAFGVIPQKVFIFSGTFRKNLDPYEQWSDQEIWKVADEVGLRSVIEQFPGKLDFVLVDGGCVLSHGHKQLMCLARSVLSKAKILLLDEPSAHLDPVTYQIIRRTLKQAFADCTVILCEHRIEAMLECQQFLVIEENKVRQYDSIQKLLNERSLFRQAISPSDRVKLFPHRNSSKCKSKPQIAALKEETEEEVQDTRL

Compound	ΔSPQ (difference between maximum and minimum SPQ values) (CFBE41o- cells, 48 h) [RFU]	EC50 (CFBE41o- cells, 48 h) [µM]	potency and efficacy compared with VX-809 in SPQ assay	ΔSPQ (Trial 2)	EC50 (Trial 2) [µM]
CCC(C)n1c(C)c(C)n2c3c(=O)n(CC)c(=O)n(C)c3nc12 (centres unmarked) [Compound I-58]	3361	8.4	–	–	–
Cn1c(=O)n(Cc2ccccc2)c(=O)c2c1nc1oc(C(C)(C)C)cn12 [Compound II-2]	13312	10.4	superior potency and efficacy to VX-809	–	–
CCn1c(=O)c2c(nc3oc(C(C)(C)C)cn32)n(C)c1=O [Compound II-3]	3935	8.6	superior potency and efficacy to VX-809	(Trial 2: 4413) RFU	12.7
C=CCn1c(Oc2ccc(Br)cc2)nc2c1c(=O)n(C)c(=O)n2C [Compound III-1]	8353	11.1	–	–	–
Cn1c(=O)c2[nH]c(N3CCN(c4ccccc4O)CC3)nc2n(C)c1=O [Compound III-2]	9814	3.6	superior potency and efficacy to VX-809	–	–
CCCN1N=C(C)Cn2c1nc1c2c(=O)n(CC(C)C)c(=O)n1C [Compound V-1]	12233	17.1	–	–	–
C=C(C)CN1N=C(C)Cn2c1nc1c2c(=O)n(C/C=C/C)c(=O)n1C [Compound V-2]	10602	17.1	–	–	–
CCCn1c(=O)c2c(nc3n2C(C)C(C)=NN3CC(C)C)n(C)c1=O (centres unmarked) [Compound V-3]	7753	4	superior potency and efficacy to VX-809	–	–
CCCCn1c(=O)c2c(nc3n2CC(C)=NN3CCC)n(C)c1=O [Compound V-4]	12028	7	superior potency and efficacy to VX-809	–	–
C=CCn1c(=O)c2c(nc3n2CC(C(C)(C)C)=NN3CC)n(C)c1=O [Compound V-5]	9200	8	–	–	–
C=CCN1N=C(C)Cn2c1nc1c2c(=O)n(CCCC)c(=O)n1C [Compound V-6]	8952	> 30	–	–	–
C=CCN1N=C(C)Cn2c1nc1c2c(=O)n(CC(C)C)c(=O)n1C [Compound V-7]	12223	23	–	–	–
CC1=NN(C)c2nc3c(c(=O)n(Cc4cccc(C)c4)c(=O)n3C)n2C1 [Compound V-8]	5149	14	–	–	–
C=CCN1N=C(C)C(C)n2c1nc1c2c(=O)n(CCCC)c(=O)n1C (centres unmarked) [Compound V-9]	10773	8.3	–	–	–
CCCn1c(=O)c2c(nc3n2CC(C)=NN3CCC(C)C)n(C)c1=O [Compound V-10]	9555	8.8	–	–	–
CC1=NNc2nc3c(c(=O)n(Cc4cccc(C)c4)c(=O)n3C)n2C1C (centres unmarked) [Compound V-11]	2625	11.3	–	–	–
C/C=C/Cn1c(=O)c2c(nc3n2C(C)C(C)=NN3CC)n(C)c1=O (centres unmarked) [Compound V-12]	6365	> 30	–	–	–
CCCN1N=C(C)Cn2c1nc1c2c(=O)n(CCC)c(=O)n1C [Compound V-13]	4602	> 30	–	–	–

Compound	ΔSPQ (difference between maximum and minimum SPQ values) (CFBE41o- cells, 48 h) [RFU]	EC50 (CFBE41o- cells, 48 h) [µM]	potency and efficacy compared with VX-809 in SPQ assay	ΔSPQ (Trial 2)	EC50 (Trial 2) [µM]
C/C=C/CN1N=C(C)Cn2c1nc1c2c(=O)n(CC(C)C)c(=O)n1C [Compound V-14]	5767	> 30	–	–	–
C=CCN1N=C(C)C(C)n2c1nc1c2c(=O)n(CCC)c(=O)n1C (centres unmarked) [Compound V-15]	4548	> 30	–	–	–
CCCN1N=C(C)C(C)n2c1nc1c2c(=O)n(CCC)c(=O)n1C (centres unmarked) [Compound V-16]	5519	> 30	–	–	–
C=CCn1c(=O)c2c(nc3n2CC(C)=NN3Cc2ccccc2)n(C)c1=O [Compound V-17]	3979	23	–	–	–
C/C=C/Cn1c(=O)c2c(nc3n2CC(C)=NN3C(C)C)n(C)c1=O [Compound V-18]	7507	11.1	–	–	–
C=CCN1N=C(C)Cn2c1nc1c2c(=O)n(CCC)c(=O)n1C [Compound V-19]	1995	3.6	–	–	–
C/C=C/CN1N=C(C)Cn2c1nc1c2c(=O)n(CCC)c(=O)n1C [Compound V-20]	4351	7.3	–	–	–
C=C(C)CN1N=C(C)C(C)n2c1nc1c2c(=O)n(C/C=C/C)c(=O)n1C (centres unmarked) [Compound V-21]	7505	> 30	–	–	–
C=C(C)CN1N=C(C)Cn2c1nc1c2c(=O)n(CC)c(=O)n1C [Compound V-22]	3369	6.5	–	–	–
CCn1c(=O)c2c(nc3n2C(C)C(C)=NN3CCC(C)C)n(C)c1=O (centres unmarked) [Compound V-23]	1055	> 30	–	–	–
CC1=NNc2nc3c(c(=O)n(CCCc4ccccc4)c(=O)n3C)n2C1 [Compound V-24]	3796	> 30	–	–	–
C=C(C)CN1N=C(C)Cn2c1nc1c2c(=O)n(C)c(=O)n1C [Compound V-25]	1927	10.6	–	–	–
C/C=C/Cn1c(=O)c2c(nc3oc(C(C)(C)C)cn32)n(C)c1=O [II-1]	7993	12.4	–	–	–
C=C(C)Cn1c(=O)c2c(nc3oc(C(C)(C)C)cn32)n(C)c1=O [II-4]	3625	> 30	–	–	–
CCn1c(N2CCN(Cc3ccccc3C)CC2)nc2c1c(=O)[nH]c(=O)n2C [III-3]	7195	> 30	–	–	–
CCn1c(N2CCN(CCCc3ccccc3)CC2)nc2c1c(=O)[nH]c(=O)n2C [III-4]	5256	> 30	–	–	–
CCOC(=O)C1CCCN(c2nc3c(c(=O)n(C)c(=O)n3C)n2CC)C1 (centres unmarked) [III-5]	4528	12.3	–	–	–
